The target of this experiment is T1, human liver glycogen phosphorylase a (HLGPa) (Homo sapiens, UniProt P06737).
T1 construct: creating a full-length cDNA fused at the 5′ end to codons for methionine-glycine-alanine-histidine; 6xHis tag (leader Met-Gly-Ala-His6-Gly-Gly) (N); made in house; host or cells: E. coli (bacterial expression plasmid pTXK1007LTev)
T1 sequence (P06737 2-847 limits assumed): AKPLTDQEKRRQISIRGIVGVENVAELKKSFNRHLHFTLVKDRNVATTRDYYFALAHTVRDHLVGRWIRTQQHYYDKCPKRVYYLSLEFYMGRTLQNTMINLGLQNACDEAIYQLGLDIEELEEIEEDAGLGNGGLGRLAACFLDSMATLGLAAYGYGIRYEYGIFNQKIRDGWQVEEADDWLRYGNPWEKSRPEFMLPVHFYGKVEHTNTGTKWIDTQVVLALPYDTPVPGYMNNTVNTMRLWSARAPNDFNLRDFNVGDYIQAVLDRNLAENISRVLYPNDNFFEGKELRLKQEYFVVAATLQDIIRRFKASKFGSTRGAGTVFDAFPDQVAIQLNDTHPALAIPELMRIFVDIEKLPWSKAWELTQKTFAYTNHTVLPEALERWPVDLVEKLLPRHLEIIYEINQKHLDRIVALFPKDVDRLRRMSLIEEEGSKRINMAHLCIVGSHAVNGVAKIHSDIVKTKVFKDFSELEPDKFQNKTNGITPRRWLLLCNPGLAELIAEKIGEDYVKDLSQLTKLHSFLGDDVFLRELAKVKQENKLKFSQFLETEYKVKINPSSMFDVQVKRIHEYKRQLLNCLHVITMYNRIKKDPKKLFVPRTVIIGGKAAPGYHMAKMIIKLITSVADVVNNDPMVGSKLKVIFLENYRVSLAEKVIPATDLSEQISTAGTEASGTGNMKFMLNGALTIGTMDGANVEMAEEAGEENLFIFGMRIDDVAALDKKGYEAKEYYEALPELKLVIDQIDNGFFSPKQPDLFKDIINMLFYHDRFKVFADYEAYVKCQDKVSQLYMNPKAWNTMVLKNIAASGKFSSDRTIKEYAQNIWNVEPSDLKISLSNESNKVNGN
Briefly: Human liver glycogen phosphorylase a enzymatic activity assay (coupled, fluorescent resorufin readout, with and without 10 mM glucose). Format: biochemical. The note with it: human liver glycogen phosphorylase a enzymatic activity assay.

For orientation: IC50 means the concentration at which inhibition is half-maximal. In the case of `COc1ccc(-c2cc(NC(=O)Nc3c(C)cc(C)cc3C)c(C(=O)NC3(C(=O)O)CCCCC3)s2)cc1` [Example 452, 1-({[5-[4-(methyloxy)phenyl]-3-({[(2,4,6-trimethylphenyl)amino]carbonyl}amino)-2-thienyl]carbonyl}amino)cyclohexanecarboxylic acid], the IC50 worked out at 3 nM.
Then `COc1ccc(-c2cc(NC(=O)Nc3c(C)cc(C)cc3C)c(C(=O)NC3(C(=O)O)CCCCCC3)s2)cc1` [Example 453, 1-({[5-[4-(methyloxy)phenyl]-3-({[(2,4,6-trimethylphenyl)amino]carbonyl}amino)-2-thienyl]carbonyl}amino)cycloheptanecarboxylic acid], with 4 nM.
In the case of `COc1ccc(-c2cc(NC(=O)Nc3c(C)cc(C)cc3C)c(C(=O)NC3(C(=O)O)CCCCCCC3)s2)cc1` [Example 454, 1-({[5-[4-(methyloxy)phenyl]-3-({[(2,4,6-trimethylphenyl)amino]carbonyl}amino)-2-thienyl]carbonyl}amino)cyclooctanecarboxylic acid], the half-maximal inhibitory concentration (IC50) came to 1 nM.
In turn, `O=C(Nc1cc2ccccc2cc1C(=O)N[C@H](C(=O)O)C1CCCCC1)Nc1c(Cl)cc(F)cc1Cl` [Example 455, (2S)-cyclohexyl({[3-({[(2,6-dichloro-4-fluorophenyl)amino]carbonyl}amino)-2-naphthalenyl]carbonyl}amino)ethanoic acid] returned an IC50 of 86 nM.
Next, `C[C@](NC(=O)c1cc2ccccc2cc1NC(=O)Nc1c(Cl)cc(Cl)cc1Cl)(C(=O)O)C1CCCCC1` [Example 456, 2-cyclohexyl-N-{[3-({[(2,4,6-trichlorophenyl)amino]carbonyl}amino)-2-naphthalenyl]carbonyl}-L-alanine]: 230 nM; `Cc1cc(C)c(CC(=O)Nc2cc3ccccc3cc2C(=O)N[C@H](C(=O)O)C2CCCCC2)c(C)c1` [Example 457, (2S)-cyclohexyl{[(3-{[(2,4,6-trimethylphenyl)acetyl]amino}-2-naphthalenyl)carbonyl]amino}ethanoic acid]: 64 nM; `Cc1cc(Br)cc(C)c1NC(=O)Nc1cc2ccccc2cc1C(=O)N[C@H](C(=O)O)C1CCCCC1` [Example 458, (2S)-({[3-({[(4-bromo-2,6-dimethylphenyl)amino]carbonyl}amino)-2-naphthalenyl]carbonyl}amino)(cyclohexyl)ethanoic acid]: 220 nM.
Then `O=C(Cc1c(Cl)ccc(Cl)c1Cl)Nc1cc2ccccc2cc1C(=O)N[C@H](C(=O)O)C1CCCCC1` [Example 459, (2S)-cyclohexyl{[(3-{[(2,3,6-trichlorophenyl)acetyl]amino}-2-naphthalenyl)carbonyl]amino}ethanoic acid], with 180 nM.
Next, `CCc1cc(C)c(NC(=O)Nc2cc3ccccc3cc2C(=O)N[C@H](C(=O)O)C2CCCCC2)c(C)c1` [Example 460, (2S)-cyclohexyl({[3-({[(4-ethyl-2,6-dimethylphenyl)amino]carbonyl}amino)-2-naphthalenyl]carbonyl}amino)ethanoic acid]: 2 nM; `C[C@](NC(=O)c1cc2ccccc2cc1NC(=O)Nc1c(Cl)cc(OC(F)(F)F)cc1Cl)(C(=O)O)C1CCCCC1` [Example 465, 2-cyclohexyl-N-[(3-{[({2,6-dichloro-4-[(trifluoromethyl)oxy]phenyl}amino)carbonyl]amino}-2-naphthalenyl)carbonyl]-L-alanine]: 6 nM; `O=C(Nc1cc2ccccc2cc1C(=O)NC(C(=O)O)[C@H]1CC[C@H](C(F)(F)F)CC1)Nc1c(Cl)cc(OC(F)(F)F)cc1Cl` (stereo partly drawn) [Example 466, {[(3-{[({2,6-dichloro-4-[(trifluoromethyl)oxy]phenyl}amino)carbonyl]amino}-2-naphthalenyl)carbonyl]amino}[trans-4-(trifluoromethyl)cyclohexyl]acetic acid]: 13 nM.
For the compound `O=C(Nc1cc2ccccc2cc1C(=O)NC(C(=O)O)[C@H]1CC[C@@H](C(F)(F)F)CC1)Nc1c(Cl)cc(OC(F)(F)F)cc1Cl` (stereo partly drawn) [Example 467, {[(3-{[({2,6-dichloro-4-[(trifluoromethyl)oxy]phenyl}amino)carbonyl]amino}-2-naphthalenyl)carbonyl]amino}[cis-4-(trifluoromethyl)cyclohexyl]acetic acid], the IC50 turned out to be 35 nM.
Then `O=C(Nc1cc2ccccc2cc1C(=O)NC(C(=O)O)C1CCOCC1)Nc1c(Cl)cc(OC(F)(F)F)cc1Cl` (stereo not shown) [Example 468, {[(3-{[({2,6-dichloro-4-[(trifluoromethyl)oxy]phenyl}amino)carbonyl]amino}-2-naphthalenyl)carbonyl]amino}(tetrahydro-2H-pyran-4-yl)acetic acid], with 15 nM; and `CCCc1cc(C)c(NC(=O)Nc2cc3ccccc3cc2C(=O)N[C@H](C(=O)O)C2CCCCC2)c(C)c1` [Example 470, (2S)-cyclohexyl({[3-({[(2,6-dimethyl-4-propylphenyl)amino]carbonyl}amino)-2-naphthalenyl]carbonyl}amino)ethanoic acid], with 2 nM.
Then `C#CCc1cc(C)c(NC(=O)Nc2cc3ccccc3cc2C(=O)N[C@H](C(=O)O)C2CCCCC2)c(C)c1` [Example 471, (2S)-cyclohexyl[({3-[({[2,6-dimethyl-4-(2-propyn-1-yl)phenyl]amino}carbonyl)amino]-2-naphthalenyl}carbonyl)amino]ethanoic acid], with 3 nM; and `Cc1cc(C)c(NC(=O)Nc2cc(F)ccc2C(=O)N[C@@](C)(C(=O)O)C2CCCCC2)c(C)c1` [Example 472, 2-cyclohexyl-N-{[4-fluoro-2-({[(2,4,6-trimethylphenyl)amino]carbonyl}amino)phenyl]carbonyl}-L-alanine], with 160 nM; and `CCCOc1cc(C)c(NC(=O)Nc2cc3ccccc3cc2C(=O)N[C@H](C(=O)O)C2CCCCC2)c(C)c1` [Example 473, (2S)-cyclohexyl[({3-[({[2,6-dimethyl-4-(propyloxy)phenyl]amino}carbonyl)amino]-2-naphthalenyl}carbonyl)amino]ethanoic acid], with 1 nM.
Next, `C[C@](NC(=O)c1ccc(F)cc1NC(=O)Nc1c(Cl)cc(OC(F)(F)F)cc1Cl)(C(=O)O)C1CCCCC1` [Example 474, 2-cyclohexyl-N-[(2-{[({2,6-dichloro-4-[(trifluoromethyl)oxy]phenyl}amino)carbonyl]amino}-4-fluorophenyl)carbonyl]-L-alanine]: 145 nM; `CCc1cc(C)c(NC(=O)Nc2cc(F)ccc2C(=O)N[C@H](C(=O)O)C2CCCCC2)c(C)c1` [Example 475, (2S)-cyclohexyl({[2-({[(4-ethyl-2,6-dimethylphenyl)amino]carbonyl}amino)-4-fluorophenyl]carbonyl}amino)ethanoic acid]: 51 nM; `C=CCc1cc(C)c(NC(=O)Nc2cc(F)ccc2C(=O)N[C@H](C(=O)O)C2CCCCC2)c(C)c1` [Example 476, (2S)-cyclohexyl[({2-[({[2,6-dimethyl-4-(2-propen-1-yl)phenyl]amino}carbonyl)amino]-4-fluorophenyl}carbonyl)amino]ethanoic acid]: 30 nM.
`CCCc1cc(C)c(NC(=O)Nc2cc(F)ccc2C(=O)N[C@H](C(=O)O)C2CCCCC2)c(C)c1` [Example 477, (2S)-cyclohexyl({[2-({[(2,6-dimethyl-4-propylphenyl)amino]carbonyl}amino)-4-fluorophenyl]carbonyl}amino)ethanoic acid]: 8 nM corresponded to half-maximal inhibition (IC50).
Next, `CCCCCc1cc(C)c(NC(=O)Nc2cc(F)ccc2C(=O)N[C@H](C(=O)O)C2CCCCC2)c(C)c1` [Example 478, (2S)-cyclohexyl({[2-({[(2,6-dimethyl-4-pentylphenyl)amino]carbonyl}amino)-4-fluorophenyl]carbonyl}amino)ethanoic acid]: 3 nM.
Then `CCCc1cc(C)c(NC(=O)Nc2cc(F)ccc2C(=O)N[C@@](C)(C(=O)O)C2CCCCC2)c(C)c1` [Example 479, 2-cyclohexyl-N-{[2-({[(2,6-dimethyl-4-propylphenyl)amino]carbonyl}amino)-4-fluorophenyl]carbonyl}-L-alanine], with 4 nM.
`CCCCc1cc(C)c(NC(=O)Nc2cc(F)ccc2C(=O)N[C@H](C(=O)O)C2CCCCC2)c(C)c1` [Example 480, (2S)-({[2-({[(4-butyl-2,6-dimethylphenyl)amino]carbonyl}amino)-4-fluorophenyl]carbonyl}amino)(cyclohexyl)ethanoic acid]: the IC50 was determined as 20 nM.
Then `CCCc1cc(C)c(NC(=O)Nc2cc(-c3ccc(F)c(F)c3)ccc2C(=O)N[C@H](C(=O)O)[C@@H](C)OC(C)(C)C)c(C)c1` [Example 481, O-(1,1-dimethylethyl)-N-{[3-({[(2,6-dimethyl-4-propylphenyl)amino]carbonyl}amino)-3′,4′-difluoro-4-biphenylyl]carbonyl}-L-threonine], with 0.4 nM.

The values are drawn from patent publication US20070249670A1, “Glycogen Phosphorylase Inhibitor Compounds and Pharmaceutical Compositions Thereof” (SMITHKLINE BEECHAM CORPORATION, priority 2004, published 2007).
